The source made the active and inactive calls. How the calls were made is not given here.
Tested on: CCRIS mutagenicity, Ames/micronucleus/aberration tests
Experiment: CCRIS mutagenicity studies
Details: Test System: AMES SALMONELLA TYPHIMURIUM

Measured: mutagenic call

Cc1ccco1
inactive: Strain/Indicator: TA97, Metabolic Activation: NONE, Method: PREINCUBATION inactive; negative | Strain/Indicator: TA98, Metabolic Activation: HAMSTER, LIVER, S-9, AROCLOR 1254 (10%), Method: PREINCUBATION inactive; negative | Strain/Indicator: TA98, Metabolic Activation: HAMSTER, LIVER, S-9, AROCLOR 1254 (30%), Method: PREINCUBATION inactive; negative | Strain/Indicator: TA98, Metabolic Activation: NONE, Method: PREINCUBATION inactive; negative | Strain/Indicator: TA98, Metabolic Activation: NONE, Method: STANDARD PLATE inactive; negative | Strain/Indicator: TA98, Metabolic Activation: RAT, LIVER, S-9, AROCLOR 1254 (10%), Method: PREINCUBATION inactive; negative | Strain/Indicator: TA98, Metabolic Activation: RAT, LIVER, S-9, AROCLOR 1254 (30%), Method: PREINCUBATION inactive; negative | Strain/Indicator: TA98, Metabolic Activation: RAT, LIVER, S-9, AROCLOR 1254, Method: PREINCUBATION inactive; negative | Strain/Indicator: TA98, Metabolic Activation: S-9, Method: STANDARD PLATE inactive; negative | Strain/Indicator: TA100, Metabolic Activation: HAMSTER, LIVER, S-9, AROCLOR 1254 (10%), Method: PREINCUBATION inactive; negative | Strain/Indicator: TA100, Metabolic Activation: HAMSTER, LIVER, S-9, AROCLOR 1254 (30%), Method: PREINCUBATION inactive; negative | Strain/Indicator: TA100, Metabolic Activation: NONE, Method: PREINCUBATION inactive; negative | Strain/Indicator: TA100, Metabolic Activation: NONE, Method: STANDARD PLATE inactive; negative | Strain/Indicator: TA100, Metabolic Activation: RAT, LIVER, S-9, AROCLOR 1254 (10%), Method: PREINCUBATION inactive; negative | Strain/Indicator: TA100, Metabolic Activation: RAT, LIVER, S-9, AROCLOR 1254 (30%), Method: PREINCUBATION inactive; negative | Strain/Indicator: TA100, Metabolic Activation: RAT, LIVER, S-9, AROCLOR 1254, Method: PREINCUBATION inactive; negative | Strain/Indicator: TA100, Metabolic Activation: S-9, Method: STANDARD PLATE inactive; negative | Strain/Indicator: TA102, Metabolic Activation: HAMSTER, LIVER, S-9, AROCLOR 1254 (10 OR 30%), Method: PREINCUBATION inactive; negative | Strain/Indicator: TA102, Metabolic Activation: NONE, Method: PREINCUBATION inactive; negative | Strain/Indicator: TA102, Metabolic Activation: RAT, LIVER, S-9, AROCLOR 1254 (10%), Method: PREINCUBATION inactive; negative | Strain/Indicator: TA102, Metabolic Activation: RAT, LIVER, S-9, AROCLOR 1254 (30%), Method: PREINCUBATION inactive; negative | Strain/Indicator: TA102, Metabolic Activation: RAT, LIVER, S-9, AROCLOR 1254, Method: PREINCUBATION inactive; negative | Strain/Indicator: TA104, Metabolic Activation: HAMSTER, LIVER, S-9, AROCLOR 1254 (5%), Method: PREINCUBATION inactive; negative | Strain/Indicator: TA104, Metabolic Activation: HAMSTER, LIVER, S-9, AROCLOR 1254 (10 OR 30%), Method: PREINCUBATION inactive; negative | Strain/Indicator: TA104, Metabolic Activation: NONE, Method: PREINCUBATION inactive; negative | Strain/Indicator: TA104, Metabolic Activation: RAT, LIVER, S-9, AROCLOR 1254 (5%), Method: PREINCUBATION inactive; negative | Strain/Indicator: TA104, Metabolic Activation: RAT, LIVER, S-9, AROCLOR 1254 (10 OR 30%), Method: PREINCUBATION inactive; negative | Strain/Indicator: TA1535, Metabolic Activation: HAMSTER, LIVER, S-9, AROCLOR 1254 (10 OR 30%), Method: PREINCUBATION inactive; negative | Strain/Indicator: TA1535, Metabolic Activation: NONE, Method: PREINCUBATION inactive; negative | Strain/Indicator: TA1535, Metabolic Activation: RAT, LIVER, S-9, AROCLOR 1254 (10 OR 30%), Method: PREINCUBATION inactive; negative
